# According to patent US12241094B2, “Phenazine degrading agents and related compositions, methods and systems for interfering with viability of bacteria” (priority 2016, dated 2025):
# Entries after “also recorded” stand apart in the source; their conditions may differ. Marks after values point to notes of the source that are not given here.
# B1: Y156F (protein)
# chain: MTGKTKPAIIGGVAITALAAAGLGVWLFTDGRGGRSTTEPVTMTLDVKNDQVAKHDFGKPGMDVGDMDIFSDILSVDGKQVGYDGGACFFTNVTPDNPMTYCELTIHLDAGEIFARSLTPHTLAPFTMAITGGTGEYANSKGELTVSGVATPDEKFELKLTK
# Columns and labels:
# PA14 [1] = assay: Reduction of redox-active compounds by PA14 (Table 1); format: cell-based, P. aeruginosa
# PA14 [2] = assay: Redox cycles over 7 days and support of survival (Table 1); format: cell-based, P. aeruginosa
# [3] = oxidized form, values from references a, c, d; cited from earlier work
# PodA30-162 = assay: Alternative substrate utilization by PodA; format: biochemical, Mycobacterium fortuitum; details: for demethylation of alternative substrate by PodA30-162 (HPLC end point): 50 μg mL^−1 PodA30-162, 4 hours, dark
# Description: Chemical formula diagrams of methylated substrates and their expected demethylated products, based on the prediction model, are shown, wherein arrows indicate demethylation catalyzed by PodA. Mixtures were analyzed by HPLC (right graphs) after 4 hours to determine the resulting products of each reaction. Standards for each product were run to determine retention times (indicated for each molecule with arrows). Only N-methylated phenazines were altered by incubation with PodA30-162. […] PMS, phenazine methosulfate.
# Enzyme activity and analysis. PYO demethylation by PodA30-162 was first determined by HPLC analysis as described previously (6, 9). To detect formaldehyde evolution, 150 nM protein was mixed with 50 μM PYO in 1 mL of 20 mM Tris pH 7.6 amended with 200 μL Nash reagent (2 M ammonium acetate, 50 mM acetic acid, 20 mM acetylacetone) and incubated at 55° C. until the reaction proceeded to completion (37, 38). The products were determined by HPLC using the same method as used for phenazine quantification. To monitor the formation of reduced phenazine, protein and 50 μM PYO were placed into an anaerobic chamber (Coy Laboratory Products) under an atmosphere of H2/N2 (5:95) and left overnight before allowing the reaction to proceed. […] A BioTek Synergy 4 microplate reader (BioTek) plate reader in the anaerobic chamber was used to measure the emission spectrum of products with excitation at 250 nm. […] Reaction progress was monitored by measuring absorbance at 313 nm (40) every 0.5 seconds for 5 minutes. […] Kinetic parameters were calculated in Microsoft Excel using the Solver plug-in and fitting data to ideal Michaelis-Menton plots with non-linear regression of experimental data (41). For measurements of the rate of methoxy-PMS demethylation, 300 nM protein was used and methoxy-PMS loss from the reaction mixture was monitored at 500 nm wavelength. […] The stimulatory effects of flavin or 2-oxoglutarate addition was determined by adding 25 μM flavin or 2-oxoglutarate to 20 μM PYO and 15 nM PodA30-162 and monitoring the reaction. […]
# [4] = system: P. aeruginosa PA14 biofilms; assay: Biofilm formation, surface coverage (chambered coverglass, DAPI); format: cell-based; details: 5 hours; PodA30-162 2 μg mL^−1, DNase 20 μg mL^−1; vs. PodA-inactive
# Description: Biofilm experiments. For all experiments involving inactivated PodA, either the E154A mutant or PodA30-162 that was subjected to a 1 hour treatment at 98° C. was used. To test the ability of PodA30-162 to degrade PYO in the presence of DNA, genomic DNA (gDNA) from P. aeruginosa PA14 was used in modified versions of previously described assays (59). For experiments using DNA pellets, 0.5 mg of gDNA was pelleted in the presence of 300 mM sodium acetate, pH 5.2 and 70% ethanol. Pellets were washed with 70% ethanol and dried. 200 μL of 800 μM PYO was added to the gDNA pellet without mixing and left to sit at room temperature for 6 hours to allow for diffusion of PYO into the gDNA pellet. The pellet was washed once with 70% EtOH, and submerged in a solution containing 10 mM Tris, pH 7.0 and 40% isopropanol. The pellet remained blue, consistent with an association of PYO with DNA. PodA30-162 was added to the isopropanol solution to a final concentration of 2 μg mL^−1 and left to sit for 3 hours to allow for the reaction to proceed. Tubes were imaged before and after PodA30-162 treatment. For experiments using solubilized gDNA, a 400 μg mL^−1 solution of gDNA was mixed with PYO and allowed to equilibrate for 6 hours. The PYO gDNA mixture was amended with 1 μg mL^−1 PodA30-162 and loss of PYO was monitored on a BioTek Synergy 4 microplate reader (BioTek) plate reader at 690 nm. Standards were included to quantify PYO loss over time. To assess biofilm formation in the presence of PodA30-162, biofilms were grown in Nunc Lab-Tek chambered coverglass slides (8-well, 0.8 cm^2 area, supplier #155411) using a modified protocol (22). PA14 was inoculated into succinate minimal medium and grown overnight to stationary phase. Cells were resuspended in fresh medium and diluted to a starting OD500 of 0.5 in succinate minimal medium. PodA30-162 (2 μg mL^−1, final concentration) or DNase (20 μg mL^−1) (22) was added and 250 μL was added to each well of the 8-well chambered coverglass. Cultures were grown for 5 hours at 37° C. and 100 rpm (Innova 44 shaking incubator, New Brunswick) in a humidified chamber. After incubation, liquid was removed from each well by drawing with a pipet tip placed in the corner of each well and chambers were washed twice with 400 μL of biofilm wash (Tris buffer, pH 7.6 and 100 mM NaCl) to remove planktonic and loosely bound cells. Attached biomass was stained by adding 450 μL biofilm wash containing 10 μg mL^−1 DAPI (4′,6-diamidino-2-phenylindole) (Santa Cruz Biotechnology). Surface associated biomass was imaged on a Leica TCS SPE confocal microscope with a ACS APO 40×/1.15 oil immersion objective. A 405 nm solid-state laser was used for excitation, and data was collected from 420-500 nm. […]
# [5] = PYO demethylation by purified PodA30-162 and mutants (spectrophotometric/HPLC); format: biochemical; details: PYO demethylation; 60 nM mutant protein
# Description: Enzyme activity and analysis. PYO demethylation by PodA30-162 was first determined by HPLC analysis as described previously (6, 9). To detect formaldehyde evolution, 150 nM protein was mixed with 50 μM PYO in 1 mL of 20 mM Tris pH 7.6 amended with 200 μL Nash reagent (2 M ammonium acetate, 50 mM acetic acid, 20 mM acetylacetone) and incubated at 55° C. until the reaction proceeded to completion (37, 38). The products were determined by HPLC using the same method as used for phenazine quantification. To monitor the formation of reduced phenazine, protein and 50 μM PYO were placed into an anaerobic chamber (Coy Laboratory Products) under an atmosphere of H2/N2 (5:95) and left overnight before allowing the reaction to proceed. To generate reduced PYO and 1-OH-PHZ, 50 μM were mixed with 1 mM sodium dithionite. The formation of reduced phenazine products was assayed visually under UV illumination (39). A BioTek Synergy 4 microplate reader (BioTek) plate reader in the anaerobic chamber was used to measure the emission spectrum of products with excitation at 250 nm. To determine the activity of PodA30-162 in the presence of glycerol, salts, or varying pH, 30 nM protein was suspended in 500 μL buffer, 40 μM PYO was mixed with 2× solution containing the buffer of interest (500 μL), and solutions were preheated to 30 C. For pH range measurements, the following buffers were used (40 mM, adjusted with KOH): acetic acid, pH 4.9; MES, pH 5.4 and 5.7; HEPES, pH 6.1; Tris, pH 6.9 and 7.5; Bicine, pH 7.8, 8.3 and 8.7; CHES, pH 9.4. To measure reaction rates, cuvettes containing the 2×PYO solution were placed in a Evolution 260Bio UV-Vis spectrophotometer (Thermo Scientific) and 500 μL of 30 nM protein was added at time 0 (15 nM protein and 20 μM PYO, final concentration). Reaction progress was monitored by measuring absorbance at 313 nm (40) every 0.5 seconds for 5 minutes. To measure kinetic parameters (kcat, Km) 15 nM protein was used in a reaction buffer of Bicine, pH 7.8; reactions were monitored as before with measurements every 0.2 seconds. The rate from the first 10 seconds of the reaction was used for the determination of kinetic parameters. Kinetic parameters were calculated in Microsoft Excel using the Solver plug-in and fitting data to ideal Michaelis-Menton plots with non-linear regression of experimental data (41). For measurements of the rate of methoxy-PMS demethylation, 300 nM protein was used and methoxy-PMS loss from the reaction mixture was monitored at 500 nm wavelength. Methoxy-PMS was purchased from TCI America. For assays with mutant proteins, 60 nM protein was used. The stimulatory effects of flavin or 2-oxoglutarate addition was determined by adding 25 μM flavin or 2-oxoglutarate to 20 μM PYO and 15 nM PodA30-162 and monitoring the reaction. Experiments testing alternative substrates were carried out using 1 mL reaction volumes containing 20 mM Tris (pH 7.6) and 50 μg mL^−1 PodA30-162. Alternative substrates tested were 10-methylphenothiazine (AlfaAesar), phenazine methosulfate (AlfaAesar), methoxyphenazine methosulfate (TCI America), and 4-keto-N-ethylphenazine. 4-keto-N-ethylphenazine was synthesized from phenazine ethosulfate (Sigma-Aldrich) by incubating under fluorescent light overnight followed by purification by HPLC as described (6, 42). As phenazine methosulfate is light sensitive and spontaneously converts to PYO in the presence of light, all reactions were carried out in the dark, and activity was assessed by end point analysis by HPLC after 4 hours (9).
molecule,measurement,setting,value
"O=C1c2ccc(S(=O)(=O)O)cc2C(=O)c2ccc(S(=O)(=O)O)cc21 [2,6-AQDS]",Reduction by PA14?,PA14 [1],Yes (very slowly)
same,# of Redox cycles over 7 days,PA14 [2],No cycle
same,Support survival?,PA14 [2],No
same,"E^0, (vs. NHE)",[3],−184^d mV
"COS(=O)(=O)[O-].COc1cccc2c1nc1ccccc1[n+]2C [methoxy-PMS, methoxyphenazine methosulfate]",methoxy-PMS demethylation over time,"PodA30-162; 300 nM protein, 500 nm",initial burst of activity followed by a slower steady state; also recorded: reaction rate slows significantly after an initial burst
C[n+]1ccc(-c2cc[n+](C)cc2)cc1 [Paraquat],Reduction by PA14?,PA14 [1],No
same,# of Redox cycles over 7 days,PA14 [2],No cycle
same,Support survival?,PA14 [2],No
same,"E^0, (vs. NHE)",[3],−446^e mV
DNase [reference compound],biofilm surface coverage,[4],inhibited biofilms; also recorded: decreased surface coverage
"O=C(O)c1cccc2nc3ccccc3nc12 [PCA, Phenazine-1-carboxylate]",Reduction by PA14?,PA14 [1],Yes
same,# of Redox cycles over 7 days,PA14 [2],22
same,Support survival?,PA14 [2],Yes
same,"E^0, (vs. NHE)",[3],−114^a mV
CN1c2ccccc2Sc2ccccc21 [10-methylphenothiazine],demethylation of alternative substrate by PodA30-162 (HPLC end point),PodA30-162,not demethylated or de-ethylated
CCn1c2cccc(=O)c-2nc2ccccc21 [4-keto-N-ethylphenazine],demethylation of alternative substrate by PodA30-162 (HPLC end point),PodA30-162,not demethylated or de-ethylated
B1,wild type activity,[5],~25%
